Measurements taken from US5493020A, “Tricyclic inhibitors of the GPIIb IIIa receptor” (Genentech, Inc., priority 1993, dated 1996).
Where two headings read alike, the source gives them in different places.

How the values were obtained:
[1] = test system: human platelet rich plasma (platelet aggregation); assay: platelet aggregation (PA) inhibition assay in human platelet rich plasma; assay type: cell-based
Protocol: In addition to the GPIIb IIIa ELISA assay, platelet aggregation assays may be performed in human platelet rich plasma (PRP). […] The blood is centrifuged at 160×g for 10 min at 22° C. and then allowed to stand for 5 min after which the PRP is decanted. Platelet poor plasma (PPP) is isolated from the remaining blood after centrifugation at 2000×g for 25 min. The platelet count of the PRP is adjusted to ca. 300,000 per microliter with PPP.
A 225 mL aliquot of PRP plus 25 mL of either a dilution of the test sample or a control (PBS) is incubated for 5 min in a Chrono-log Whole Blood Aggregometer at 25° C. An aggregating agent (collagen, 1 mg/ml; U46619, 100 ng/ml; or ADP, 8 mM) is added and the platelet aggregation recorded.

[2] = target: T1, human platelet GPIIbIIIa receptor (Homo sapiens, UniProt P05106+P08514); assay: modified fibrinogen-GPIIbIIIa ELISA (inhibition of fibrinogen binding to purified human platelet GPIIbIIIa receptor)
T1 construct: purified human platelet GPIIbIIIa receptor; from tissue; host or cells: human platelets (purified, solubilized receptor)
Protocol: In-vitro biological activity of the compounds of Formula I and II are monitored using a modified fibrinogen-GPIIbIIIa ELISA based on the method of Nachman and Leung (J. Clin. Invest. 69:263-269 (1982)) which measures the inhibition of fibrinogen binding to purified human platelet GPIIbIIIa receptor. Human fibrinogen is prepared by the method of Lipinska, et al. (J. Lab. Clin. Med. 84:509-516 (1974)). Platelet GPIIb IIIa is prepared by the method of Fitzgerald, et al., Anal. Biochem.,151:169-177 (1985).
Briefly, microtiter plates are coated with fibrinogen ([…]) and then blocked with TACTS buffer containing 0.5% bovine serum albumin (BSA). (TACTS buffer contains 20mM Tris.HCl, pH 7.5, 0.02% sodium azide, 2 mM calcium chloride, 0.05% Tween 20, 150 mM sodium chloride.) The plate is washed with phosphate buffered saline (PBS) containing 0.01% Tween 20 and the sample to be determined added, followed by addition of solubilized GP IIbIIIa receptor ([…]) in TACTS, 0.5% BSA. After incubation, the plate is washed and 1 mg/ml of murine anti-platelet monoclonal antibody AP3 (Newman et al., Blood 65:227-232 (1985)) is added. After another wash a goat anti-mouse IgG conjugated to horseradish peroxidase is added. A final wash is performed and developing reagent buffer (10 mg o-phenylenediamine dihydrochloride, 0.0212% hydrogen peroxide, 0.22 mM citrate, 50 mM phosphate, pH 5.0) is added and then incubated until color develops. The reaction is stopped with 1N sulfuric acid and the absorbance at 492 nm is recorded.

GPIIb IIIa = settings: result in words, EP 372 486 (Hoffmann La Roche); cited from earlier work
[3] = Platelet, read-out: IC50 PA(citrate)
[4] = ELISA, read-out: IC50 Fg/IIbIIIa
[5] = Platelet, read-out: IC50 PA(heparin)
[6] = platelet aggregation, citrate, read-out: IC50 PA(citrate)
[7] = platelet aggregation, heparin, read-out: IC50 PA(heparin)

T1 sequence (P08514 32-887 limits assumed): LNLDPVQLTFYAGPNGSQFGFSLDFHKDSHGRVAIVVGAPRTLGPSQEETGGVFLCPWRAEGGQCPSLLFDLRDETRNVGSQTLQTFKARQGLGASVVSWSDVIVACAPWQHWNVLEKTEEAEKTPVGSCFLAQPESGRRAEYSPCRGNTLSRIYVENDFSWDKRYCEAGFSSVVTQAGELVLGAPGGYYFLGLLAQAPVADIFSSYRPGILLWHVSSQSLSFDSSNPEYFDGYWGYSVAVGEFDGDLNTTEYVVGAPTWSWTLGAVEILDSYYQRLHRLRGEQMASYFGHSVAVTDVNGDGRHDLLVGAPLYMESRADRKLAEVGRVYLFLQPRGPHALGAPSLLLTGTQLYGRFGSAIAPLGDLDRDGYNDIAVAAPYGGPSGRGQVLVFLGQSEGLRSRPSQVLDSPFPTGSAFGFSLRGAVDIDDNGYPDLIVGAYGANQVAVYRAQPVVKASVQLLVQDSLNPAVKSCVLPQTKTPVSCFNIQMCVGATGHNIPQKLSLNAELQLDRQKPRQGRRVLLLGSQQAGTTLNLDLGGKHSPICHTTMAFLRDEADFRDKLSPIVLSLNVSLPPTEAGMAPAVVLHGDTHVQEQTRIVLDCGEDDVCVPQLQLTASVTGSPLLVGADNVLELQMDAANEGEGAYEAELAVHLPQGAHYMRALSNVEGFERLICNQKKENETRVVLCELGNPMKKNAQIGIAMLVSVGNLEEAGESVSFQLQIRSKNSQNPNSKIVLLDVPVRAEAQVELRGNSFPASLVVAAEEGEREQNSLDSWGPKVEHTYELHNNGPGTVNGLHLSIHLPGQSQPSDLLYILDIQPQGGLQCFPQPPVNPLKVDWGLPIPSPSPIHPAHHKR
T1 sequence (P08514 891-1039 limits assumed): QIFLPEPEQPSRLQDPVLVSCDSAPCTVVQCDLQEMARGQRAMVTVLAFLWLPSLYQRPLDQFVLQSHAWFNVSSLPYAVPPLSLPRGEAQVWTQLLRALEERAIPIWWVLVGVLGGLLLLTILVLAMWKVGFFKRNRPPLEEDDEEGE
T1 sequence (P05106 27-788): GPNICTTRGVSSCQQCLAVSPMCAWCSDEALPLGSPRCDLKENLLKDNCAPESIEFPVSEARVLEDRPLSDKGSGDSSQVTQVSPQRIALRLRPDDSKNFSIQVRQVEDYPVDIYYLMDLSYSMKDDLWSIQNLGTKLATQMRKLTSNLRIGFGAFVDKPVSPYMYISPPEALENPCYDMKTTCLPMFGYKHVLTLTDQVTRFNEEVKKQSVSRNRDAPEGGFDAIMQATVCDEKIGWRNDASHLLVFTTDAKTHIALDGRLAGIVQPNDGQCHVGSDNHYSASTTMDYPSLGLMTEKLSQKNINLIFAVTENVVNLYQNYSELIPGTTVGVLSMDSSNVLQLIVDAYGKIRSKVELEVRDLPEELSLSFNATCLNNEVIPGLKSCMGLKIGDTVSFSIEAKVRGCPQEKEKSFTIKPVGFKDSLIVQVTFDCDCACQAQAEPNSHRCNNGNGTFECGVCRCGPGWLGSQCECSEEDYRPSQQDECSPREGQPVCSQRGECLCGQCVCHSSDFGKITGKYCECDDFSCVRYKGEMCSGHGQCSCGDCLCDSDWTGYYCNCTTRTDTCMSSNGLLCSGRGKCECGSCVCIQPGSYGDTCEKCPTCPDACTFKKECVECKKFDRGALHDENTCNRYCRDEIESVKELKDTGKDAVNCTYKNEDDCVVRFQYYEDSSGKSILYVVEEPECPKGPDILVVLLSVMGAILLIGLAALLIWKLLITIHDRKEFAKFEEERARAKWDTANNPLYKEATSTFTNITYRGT

Cc1cnc2n1-c1ccc(C#CCCCCN)cc1C(=O)N(CCC(=O)O)C2 [H2 N(CH2)4 CC] gave an IC50 [1, 3] of 8290 nM and an IC50 [2, 4] of 57 nM.

For N=C(N)c1ccc(C(=O)Nc2cccc(C(=O)NCCC(=O)O)c2)cc1 [drawing 2], the “IC50 in an ELISA measurement of fibrinogen GPIIb IIIa binding” value (GPIIb IIIa) is given as “particular low IC50”.

Compound Cc1cnc2n1-c1ccc(OCc3ccc(C(=N)N)cc3)cc1C(=O)N(CCC(=O)O)C2 [p-H2 N(NH)CC6 H4 CH2 O] has an IC50 [1, 3] of 133 nM, an IC50 [1, 5] of 220 nM and an IC50 [2, 4] of 9 nM.

For N=C(N)c1ccc(COc2ccc3c(c2)C(=O)N(CCC(=O)O)Cc2nc4ccccc4c(=O)n2-3)cc1 [p-H2 N(NH)CC6 H4 CH2 O], the IC50 [1, 6] was 540 nM and the IC50 [1, 7] was 1700 nM.

Work on Cc1nnc2n1-c1ccc(OCc3ccc(C(=N)N)cc3)cc1C(=O)N(CCC(=O)O)C2 [p-H2 N(NH)CC6 H4 CH2 O] yielded an IC50 [1, 6] of 5 nM and an IC50 [1, 7] of 86 nM.

N=C(N)c1ccc(C(=O)Nc2cccc(C(=O)NCCC(=O)O)c2)cc1 [N-[3-(4-amidinobenzamido)benzoyl]-3-aminoproprionoic acid, reference compound] showed an IC50 ([1]; Platelet, internal standard, measured according to the assays described herein, anticoagulant not stated, read-out: PA inhibition assay IC50) of roughly 3000 nM and an IC50 ([2]; internal standard, measured according to the assays described herein, read-out: Fg/GPIIb IIIa ELISA IC50) of roughly 25 nM.

For Cc1cnc2n1-c1ccc(C#Cc3ccc(C(=N)N)cc3)cc1C(=O)N(CCC(=O)O)C2 [p-H2 N(NH)CC6 H4 CC], the IC50 [1, 3] was 93 nM, the IC50 [1, 5] was 240 nM and the IC50 [2, 4] was 4 nM.
